From paper PMC9696794, “Synthesis and Antimicrobial Activity of Short Analogues of the Marine Antimicrobial Peptide Turgencin A: Effects of SAR Optimizations, Cys-Cys Cyclization and Lipopeptide Modifications” (International Journal of Molecular Sciences, 2022)
Values after ≈ are worked out from the molar mass of the structure shown. Read-outs that look alike come from different tables or passages of the source. Where a SMILES comes first, the peptide text is derived from it. Bridges are numbered along the chain shown (N, C = ends).

Tests used:
[1] = test system: B. subtilis (Bs, ATCC 23857); test: microbe, parasite or virus in culture; assay type: cell-based, Bacillus subtilis
Summary of the method: (§1)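 Cultures grown in Mueller–Hinton broth were adjusted by OD600 to 2.5–3 × 10^4 CFU/mL and mixed with two-fold peptide dilutions from 256 to 1 µg/mL. Plates were incubated at 35 °C with OD595 monitored every hour for 24 h.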

[2] = test system: C. glutamicum (Cg, ATCC 13032); test: microbe, parasite or virus in culture; assay type: cell-based, Corynebacterium glutamicum
Summary of the method: as §1

[3] = test system: S. aureus (Sa, ATCC 9144); test: microbe, parasite or virus in culture; assay type: cell-based, Staphylococcus aureus
Summary of the method: as §1

[4] = test system: S. epidermidis RP62A (Se, ATCC 35984); test: microbe, parasite or virus in culture; assay type: cell-based, Staphylococcus epidermidis
Summary of the method: as §1

[5] = test system: E. coli (Ec, ATCC 25922); test: microbe, parasite or virus in culture; assay type: cell-based, Escherichia coli; conditions: for MIC: Escherichia coli
Summary of the method: as §1

[6] = test system: P. aeruginosa (Pa, ATCC 27853); test: microbe, parasite or virus in culture; assay type: cell-based, Pseudomonas aeruginosa
Summary of the method: as §1

[7] = test system: all bacterial strains; test: Antibacterial MIC assay, all bacterial strains together (range or geometric mean); assay type: cell-based; conditions: for GM (geometric mean of the MIC values against all bacterial strains): Table 1, six bacterial strains; for GM of MIC Tot. bact.: Table S3, all bacterial test strains, MIC >256 set to 256
Summary of the method: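 Broth microdilution in Mueller–Hinton broth against B. subtilis, C. glutamicum, S. aureus, S. epidermidis RP62A, E. coli and P. aeruginosa; inoculum 2.5–3 × 10^4 CFU/mL, 35 °C, OD595 read hourly for 24 h. MIC: lowest peptide concentration giving OD below 10% of growth control; geometric mean across strains, triplicate.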

[8] = test system: A. pullulans (Ap); test: microbe, parasite or virus in culture; assay type: cell-based, Aurobasidium pollulans; conditions: 48 h
Summary of the method: (§2)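 Overnight cultures in potato dextrose broth with 2% glucose at 25–30 °C were diluted to approx. 4 × 10^5 spores/mL and mixed 1:1 with two-fold peptide dilutions plated at 256 to 1 µg/mL. After 48 h at room temperature, OD600 was read. MIC was the lowest concentration giving OD below 10% of the growth control, in triplicate.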

[9] = test system: C. albicans (Ca, ATCC 10231); test: microbe, parasite or virus in culture; assay type: cell-based, Candida albicans
Summary of the method: as §2

[10] = test system: Rhodotorula sp. (Rh); test: microbe, parasite or virus in culture; assay type: cell-based; conditions: 48 h
Summary of the method: as §2

[11] = test system: human red blood cells (RBC); test: Haemolytic activity assay; assay type: cell-based
Summary of the method: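 Washed human erythrocytes (1% hematocrit final) incubated 1 h at 37 °C with agitation with lipopeptides at 500–3.9 μM in PBS (≤1% DMSO), duplicates. Haemoglobin release read at 545 nm relative to 0.1% Triton X-100; EC50 is 50% haemolysis, averaged from three experiments.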

[12] = test system: E. coli MC4100 (wild type, WT); test: microbe, parasite or virus in culture; conditions: for MIC E. coli MC4100 (WT): wild type; for MIC: Escherichia coli, read-out: MIC E. coli MC4100 (WT)
Experimental: (§3) All cyclic and linear peptides were screened for antibacterial activity against four Gram-positive strains: B. subtilis (Bs, ATCC 23857), C. glutamicum (Cg, ATCC 13032), S. aureus (Sa, ATCC 9144) and S. epidermidis RP62A (Se, ATCC 35984), and two Gram-negative strains: E. coli (Ec, ATCC 25922) and P. aeruginosa (Pa, ATCC 27853). The activity was assessed using a broth microdilution assay according to a modified CLSI-based method. Briefly, overnight bacterial cultures were grown in Mueller–Hinton (MH) broth medium (Difco Laboratories, Detroit, MI, USA) for 2 h at room temperature. The optical density (OD600) was measured, and the bacterial suspensions were adjusted to 2.5–3 × 10^4 CFU/mL in MH medium. The bacterial suspension (50 µL) was distributed in 96-well plates (Nunc, Roskilde, Denmark) preloaded with two-fold dilution series (256 to 1 µg/mL) of peptide solutions (50 µL), giving a final well volume of 100 µL. The microplates were incubated in an EnVision 2103 microplate reader (PerkinElmer, Llantrisant, UK) at 35 °C, with OD595 recorded every hour for 24 h. MIC was defined as the lowest concentration of peptides showing an optical density less than 10% of the negative (growth) control, consisting of bacterial suspension and water. Polymyxin B sulfate (Sigma-Aldrich, St. Louis, MO, USA) and chlorhexidine acetate (CHX, Fresenius Kabi, Halden, Norway), both with concentrations ranging from 12.5 to 0.09 μg/mL, served as positive (growth inhibition) controls. All peptides were tested in triplicate.
(§4) MIC values were determined for all cyclic peptides against two E. coli strains: wild type (WT) MC4100 and the hyperpermeable variant NR698, having a deficient outer membrane. The NR698 strain, containing lptD4213/imp4213 mutation, was kindly provided by M. Grabowicz (Emory University School of Medicine, Rollins Research Center, Atlanta, GA, USA). The assay was performed in the same way as previously described for the antibacterial MIC assay.

[13] = test system: E. coli NR698 (outer membrane permeable mutant, imp4213); test: microbe, parasite or virus in culture; conditions: for MIC E. coli NR698 (mutant): MC4100 NR698 imp4213, deficient outer membrane; for MIC: Escherichia coli, read-out: MIC E. coli NR698 (mutant)
Experimental: as §3, §4

[14] = test system: Gram-positive bacterial strains; conditions: Table S3; MIC >256 set to 256
Summary of the method: as §1

[15] = test system: Gram-negative bacterial strains (E. coli and P. aeruginosa); test: Antibacterial MIC assay, Gram-negative strains together (range or geometric mean); assay type: cell-based; conditions: Table S3; MIC >256 set to 256
Summary of the method: as §1

[16] = test system: fungi (A. pullulans, C. albicans, Rhodotorula sp.); test: Antifungal MIC assay, all fungi together (range or geometric mean); assay type: cell-based; conditions: Table S3; MIC >128 set to 128
Summary of the method: as §2

Row | Compound | Antimicrobial Activity (MIC) Gram + Bs ([1]; ATCC 23857, 24 h) | Antimicrobial Activity (MIC) Gram + Cg ([2]; ATCC 13032, 24 h) | Antimicrobial Activity (MIC) Gram + Sa ([3]; ATCC 9144, 24 h) | Antimicrobial Activity (MIC) Gram + Se ([4]; ATCC 35984, 24 h) | Antimicrobial Activity (MIC) Gram − Ec ([5]; ATCC 25922, 24 h) | Antimicrobial Activity (MIC) Gram − Pa ([6]; ATCC 27853, 24 h) | GM (geometric mean of the MIC values against all bacterial strains) [7] | GM of MIC Tot. bact. [7] | Antimicrobial Activity (MIC) Fungi Ap [8] | Antimicrobial Activity (MIC) Fungi Ca ([9]; ATCC 10231, 48 h) | Antimicrobial Activity (MIC) Fungi Rh [10] | MIC E. coli MC4100 (WT) [12] | MIC E. coli NR698 (mutant) [13] | GM of MIC G+ [14] | GM of MIC G- [15] | GM of MIC Fungi [16] | MIC [12] | MIC [13] | also measured
1 | CC(C)C[C@H](NC(=O)[C@H](CCCCN)NC(=O)[C@@H]1CSSC[C@H](N)C(=O)NCC(=O)N[C@@H](CCCCN)C(=O)N[C@@H](CCCCN)C(=O)N[C@@H](Cc2c[nH]c3ccccc23)C(=O)NCC(=O)N[C@@H](Cc2c[nH]c3ccccc23)C(=O)N[C@@H](Cc2c[nH]c3ccccc23)C(=O)N[C@@H](CCCCN)C(=O)N1)C(N)=O [cTurg-3] (H-CGKKWGWWKCKL-NH2; disulfide 1-10; N-terminus assumed) | 4 µg/mL | 4 µg/mL | 32 µg/mL | 16 µg/mL | 32 µg/mL | 128 µg/mL | 18 µg/mL | 18 µg/mL | 32 µg/mL | 32 µg/mL | 32 µg/mL | 16 µg/mL (≈ 10.5 µM) | 8 µg/mL (≈ 5.26 µM) | 10 µg/mL | 64 µg/mL | 32 µg/mL |  |  | Selectivity index (SI) G- ([11]; Table S3, EC50/GM of Gram-negative strains, highest tested concentration used where EC50 above it): 13; Selectivity index (SI) G+ ([11]; Table S3, EC50/GM of Gram-positive strains, highest tested concentration used where EC50 above it): 89; Selectivity index (SI) Fungi ([11]; Table S3, EC50/GM of fungi, highest tested concentration used where EC50 above it): 27; SI (selectivity index = EC50/GM) ([11]; haemolytic EC50 over GM of MIC against all bacterial strains, Table 1): 47; RBC Tox. (EC50), haemolytic activity ([11]; human RBC, 1 h, 37 °C, concentration giving 50% haemolysis): 849 µg/mL
2 | CN[C@H](CC(C)C)C(=O)N[C@H]1C(=O)N[C@@H](CC(N)=O)C(=O)N[C@H]2C(=O)N[C@H]3C(=O)N[C@H](C(=O)N[C@H](C(=O)O)c4cc(O)cc(O)c4-c4cc3ccc4O)[C@H](O)c3ccc(c(Cl)c3)Oc3cc2cc(c3O[C@@H]2O[C@H](CO)[C@@H](O)[C@H](O)[C@H]2O[C@H]2C[C@](C)(N)[C@H](O)[C@H](C)O2)Oc2ccc(cc2Cl)[C@H]1O [Vancomycin, reference compound] |  |  |  |  |  |  |  |  |  |  |  |  |  |  |  |  | 64 µg/mL (≈ 44.2 µM) | 0.3 µg/mL (≈ 0.207 µM) | MIC ([5]; ATCC25922, read-out: MIC E. coli ATCC 25922 (from Table 1)): 125 µg/mL (≈ 86.3 µM)
3 | O=C(N[C@H](CO)[C@H](O)c1ccc([N+](=O)[O-])cc1)C(Cl)Cl [Chloramphenicol, reference compound] |  |  |  |  |  |  |  |  |  |  |  |  |  |  |  |  | 12.5 µg/mL (≈ 38.7 µM) | 3.1 µg/mL (≈ 9.59 µM) | MIC ([5]; ATCC25922, Table 2, laboratory strain, read-out: MIC E. coli ATCC 25922 (from Table 1)): 1.8 µg/mL (≈ 5.57 µM)
4 | CC(C)C[C@H](NC(=O)[C@H](CCCCN)NC(=O)[C@@H]1CSSC[C@H](N)C(=O)NCC(=O)N[C@@H](CCCCN)C(=O)N[C@@H](CCCCN)C(=O)N2CCC[C@H]2C(=O)NCC(=O)NCC(=O)N[C@@H](Cc2c[nH]c3ccccc23)C(=O)N[C@@H](CCCCN)C(=O)N1)C(N)=O [cTurg-1] (H-CGKKPGGWKCKL-NH2; disulfide 1-10; N-terminus assumed) | 256 µg/mL | 16 µg/mL | >256 µg/mL | >256 µg/mL | >256 µg/mL | >256 µg/mL | 161 µg/mL | 161 µg/mL | 32 µg/mL | 128 µg/mL | 64 µg/mL |  | 64 µg/mL (≈ 49.2 µM) | 128 µg/mL | 256 µg/mL | 64 µg/mL |  |  | MIC against all bacterial strains ([7]; span over the strains): ≥ 256 µg/mL
5 | Polymyxin B [reference compound] |  |  |  |  |  |  |  |  |  |  |  | 0.8 µg/mL | 0.2 µg/mL |  |  |  |  |  | Antimicrobial Activity (MIC) Gram + Bs ([1]; B. subtilis ATCC 23857, 24 h): 3.1 µg/mL; Antimicrobial Activity (MIC) Gram + Cg ([2]; C. glutamicum ATCC 13032, 24 h): 3.1 µg/mL; Antimicrobial Activity (MIC) Gram + Sa ([3]; S. aureus ATCC 9144, 24 h): 12.5 µg/mL; Antimicrobial Activity (MIC) Gram + Se ([4]; S. epidermidis RP62A ATCC 35984, 24 h): 6.3 µg/mL; Antimicrobial Activity (MIC) Gram − Ec ([5]; E. coli ATCC 25922, 24 h): 3.1 µg/mL; MIC E. coli ATCC 25922 (from Table 1) ([5]; Table 2, laboratory strain): 3.1 µg/mL; Antimicrobial Activity (MIC) Gram − Pa ([6]; P. aeruginosa ATCC 27853, 24 h): 3.1 µg/mL; Antimicrobial Activity (MIC) Fungi Ap ([8]; A. pullulans): 3.1 µg/mL; Antimicrobial Activity (MIC) Fungi Ca ([9]; C. albicans ATCC 10231, 48 h): 12.5 µg/mL; Antimicrobial Activity (MIC) Fungi Rh ([10]; Rhodotorula sp.): 3.1 µg/mL
